Measured values as given in EP0702683B1, “06-SUBSTITUTED GUANINE DERIVATIVES, A PROCESS FOR THEIR PREPARATION AND THEIR USE IN TREATING TUMOUR CELLS” (Cancer Research Technology Limited, priority 1993, dated 1994).
Where two headings read alike, the source gives them in different places.

What was measured:
[1] = system: Chinese hamster V79 cells; assay: Growth inhibition of V79 cells by inactivator alone; format: cell-based
Procedure: In order to assess the effects on cell growth alone, Xeroderma pigmentosum cells and Chinese Hamster V79 cells were exposed to increasing concentrations (up to 600µM) of selected inactivators for 2h at 37°. In some cases, the inactivators were allowed to undergo hydrolysis at 37°C for 20 hours and then added to […] in order to assess the extent to which the decomposition products of the agents might inhibit cell growth. After 6 days the extent of cell growth was determined as described above.

[2] = target: T1, ATase (Rattus norvegicus, UniProt P24528); assay: Inactivation of ATase activity in Yoshida cells; format: cell-based
T1 construct: endogenous in cells; host or cells: Yoshida
T1 sequence (P24528 1-209): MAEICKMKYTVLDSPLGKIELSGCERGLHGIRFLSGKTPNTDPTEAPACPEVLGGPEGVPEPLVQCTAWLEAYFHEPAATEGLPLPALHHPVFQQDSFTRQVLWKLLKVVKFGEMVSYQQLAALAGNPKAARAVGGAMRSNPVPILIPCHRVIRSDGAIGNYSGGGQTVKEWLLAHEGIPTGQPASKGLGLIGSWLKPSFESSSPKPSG
Procedure: (§1) Mammalian cells were cultured under standard conditions. For example, Raji (a human lymphoblastoid cell line from a Burkitt's lymphoma) cells were grown in suspension culture in RPMI medium supplemented with 10% horse serum. A375M cells are human melanoma cells from which the xenografts described below were established following subcutaneous injection into nude mice: WiDr cells are a human colon carcinoma cell line: Hamster+120 cells are a mitozolomide-selected subline of a Chinese hamster lung fibroblast V79 cell line called RJKO: Yoshida cells are a rat carcinosarcoma cell line and YRbus is a busulphan resistant subline thereof: XP cells are an SV40-transformed fibroblast cell line originally from the skin of a Xeroderma pigmentosum patient, pHMGhAT2b cells are a clone of these cells that have been transfected with a mammalian cell expression vector containing the human ATase cDNA and pHMGla cells are a clone that have been transfected with the expression vector only (i.e. one not containing the human ATase cDNA). Cell pellets were resuspended in cold (4°C) buffer I containing 2 µg/ml leupeptin and sonicated for 10 seconds at 12 µ peak to peak distance. After cooling in ice, the cells were sonicated for a further 10 seconds at 18 µ. Immediately after sonication, 0.01 volumes of 8.7 mg/ml phenylmethanesulphonylfluoride in ethanol was added and the sonicates centrifuged at 15 000 g for 10 minutes at 4°C to pellet cell debris. The supernatant was kept for determination of ATase activity (see below).
(§2) Cells were diluted to 10^6/ml in culture medium containing either the appropriate concentration of inactivator or an equivalent volume of vehicle (DMSO). Following incubation at 37°C for 2 hours the cells were harvested by centrifugation, washed twice with PBS and the resulting cell pellets (between 1-2 x 10^7 per pellet) stored at -20°C. ATase activity was determined as described above, in duplicate sonicated cell extracts and expressed as the percentage activity remaining based on that present in the untreated controls (for example 350-450 fm/mg in Raji cells).

[3] = target: T2, ATase (Homo sapiens, UniProt P16455); assay: In vitro ATase inactivation assay with purified recombinant human ATase; format: biochemical; design: made in house; conditions: for effectiveness in the in vitro ATase inactivation assay compared with BeG: Figure 1, in words
T2 sequence (P16455 1-207): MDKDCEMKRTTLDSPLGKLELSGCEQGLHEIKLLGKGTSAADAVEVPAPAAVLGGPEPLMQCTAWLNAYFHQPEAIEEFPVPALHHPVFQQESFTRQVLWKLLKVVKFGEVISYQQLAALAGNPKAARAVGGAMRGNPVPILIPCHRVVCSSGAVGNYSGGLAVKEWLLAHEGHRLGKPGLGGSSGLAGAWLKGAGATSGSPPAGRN
Procedure: The cDNA cloning and overexpression of the human ATase has been reported previously^23. Purification of the recombinant proteins was achieved either by affinity chromatography through a DNA-cellulose column as described by Wilkinson et al.,^25, 26, or by DEAE-cellulose ion-exchange chromatography. For the latter, the ATase protein was partially purified by ammonium sulphate precipitation (30 - 60%) and dialysed against 10 mM Tris-HCl pH 7.5, 1 mM DTT, 2 mM EDTA, 10% glycerol, before loading on a DEAF-cellulose column. The ATase was then eluted with a 0-0.1 M NaCl gradient.
Compounds to be tested were dissolved in DMSO to a final concentration of 10 mM and diluted just before use in buffer I containing 1 mg/ml bovine serum albumin (IBSA). Recombinant ATase was diluted in IBSA and titrated in order that the reaction be conducted under ATase, and not substrate, limiting conditions. In each assay, fixed amounts of ATase (60-75 fmol) were incubated with varying amounts of 0^6-benzylguanine, or test compound in a total volume of 200 µl of IBSA containing 10 µg of calf thymus DNA at 37°C for 1 hour. The [^3H]-methylated-DNA substrate (100 µl containing 6.7 µg of DNA and 100 fmol of 0^6-methylguanine) was added and incubation continued at 37° for 1 hour, until the reaction was completed. Following acid hydrolysis of the DNA as previously described^21 the [^3H]-methylated protein was recovered and quantitated by liquid scintillation counting. Samples were typically assayed in duplicate and experiments repeated several times. I50 is the concentration of inactivator required to produce a 50% reduction in ATase activity.

[4] = target: T2, ATase; assay: Inactivation of ATase activity in WiDr cells; format: cell-based; design: endogenous in cells; host or cells: Raji
Procedure: as §1, with “Immediately after sonication, 0.01 volumes of 8.7 mg/ml phenylmethanesulphonylfluoride in ethanol was added and the sonicates centrifuged at 15 000 g for 10 minutes at 4°C to pellet cell debris. The supernatant was kept for determination of ATase activity (see below).” left out

[5] = Stability of inactivators at 37°C (spectrophotometric half life); format: physicochemical
Procedure: Inactivators (10mM in DMSO) were diluted to 0.1mM in prewarmed degassed buffer I (1mM EDTA, 50mM Tris pH 8.3) or PBS (pH 7-7.2). […] Samples were immediately transferred to a CARY13 spectrophotometer (cuvette block held at 37°C) and scanned at an appropriate wavelength (according to the spectral properties of the compound) at 3-10 minute intervals for up to 80 hours. The results were expressed as percentage absorbance change versus time and T1/2 values (half life) extrapolated from this.

[6] = system: ATase; assay: Inactivation of ATase in mammalian cells, summary over cell lines; format: cell-based; conditions: range over the cell lines of Table 5 (table head: µM; no unit in the sentence); read-out: I50 values for ATase inactivation in human, rat and Chinese hamster cells
Procedure: Mammalian cells were cultured under standard conditions. For example, Raji (a human lymphoblastoid cell line from a Burkitt's lymphoma) cells were grown in suspension culture in RPMI medium supplemented with 10% horse serum. […]
as §2, with “Following incubation at 37°C for 2 hours the cells were harvested by centrifugation, washed twice with PBS and the resulting cell pellets (between 1-2 x 10^7 per pellet) stored at -20°C.” left out

[7] = target: T2, ATase; assay: Inactivation of ATase activity in Raji cells; format: cell-based; design: endogenous in cells; host or cells: Raji
Procedure: as §1
Cells were diluted to 10^6/ml in culture medium containing either the appropriate concentration of inactivator or an equivalent volume of vehicle (DMSO). Following incubation at 37°C for 2 hours the cells were harvested by centrifugation, washed twice with PBS and the resulting cell pellets (between 1-2 x 10^7 per pellet) stored at -20°C.

[8] = 0.1mM in PBS (pH 7-7.2), read-out: T1/2(h) in PBS (converted)
[9] = 0.1mM in buffer I (1mM EDTA, 50mM Tris pH 8.3), read-out: T1/2(h) in Buffer I (converted)

| SMILES | toxic concentrations in V79 cells relative to those at which sensitization to BCNU was observed ([1]; Figs 5 & 6) | IC50 ([2]; Rat Yoshida cells, 2 hours at 37°C, read-out: Inactivation of ATase in Mammalian Cells I50(µM) Rat Yoshida) | IC50 [3] | effectiveness in the in vitro ATase inactivation assay compared with BeG [3] | IC50 ([4]; Human WiDr cells, 2 hours at 37°C, read-out: Inactivation of ATase in Mammalian Cells I50(µM) Human WiDr) | half-life at 100 µM [5, 8] | half-life at 100 µM [5, 9] | IC50 [6] | IC50 [7] | IC50 ([7]; Human Raji cells, 2 hours at 37°C (Table 5), read-out: Inactivation of ATase in Mammalian Cells I50(µM) Human Raji) | doses producing some growth inhibition of V79 cells ([1]; inactivator alone, up to 600µM, 2h at 37°, Figure 5) | IC50 [2] | IC50 [4] | IC50 ([7]; read-out: Inactivation of ATase in Mammalian Cells I50(µM) Human Raji, Human Raji cells, 2 hours at 37°C (Table 5)) |
| --- | --- | --- | --- | --- | --- | --- | --- | --- | --- | --- | --- | --- | --- | --- |
| Nc1nc(OCc2ccco2)c2nc[nH]c2n1 [B.4203, O^6-furfurylguanine] | at least 100 times | 0.06 µM | 80 nM | not as effective as BeG | 0.08 µM | 0.17 h | 0.3 h | 0.04 to 0.12 µM | 0.04 µM | 0.04 µM | – | – | – | – |
| Nc1nc(OCc2cccs2)c2nc[nH]c2n1 [B.4205, O^6-thenylguanine] | – | – | 18 nM | considerably better | – | 0.6 h | 1.2 h | 0.02 to 0.03 µM | 0.02 µM | – | no such effects were seen | 0.02 µM | 0.02 µM | 0.02 µM |
